Measurements reported in patent US20250140406A1, “CLASSIFYING TUMORS AND PREDICTING RESPONSIVENESS” (Oncocyte Corporation, priority 2022, published 2025).

How the values were obtained:
[1] = tested on: NSCLC cell lines (xenograft models); conditions: of the 10 NSCLC cell lines, GSE109302; cited from earlier work
[2] = tested on: Representative Cell Lines of TNBC tumor subtypes; conditions: TNBC subtypes from Lehmann et al.; cited from earlier work
[3] = tested on: cancer cell lines classified IM, MSL, M; assay: Cancer Therapeutics Response Portal (CTRP) small-molecule sensitivity correlated with IM, MSL and M subtype; type: cell-based; conditions: CTRP and PRISM screens; IM class by 101 gene signature
Experimental: Compound correlations where the correlation was negative, indicating sensitivity to the compound, and with a q value less than 0.05 were assessed.

SMILES | Tumor subtype whose representative cell lines respond to the treatment [2] | also measured
COc1cc(C(=O)NC2CCN(C)CC2)c(F)cc1Nc1ncc(C(F)(F)F)c(Oc2cccc3c2C(=O)N(C)C3)n1 [BI 853520] |  | Number of NSCLC cell lines resistant to the drug [1]: five; Number of NSCLC cell lines sensitive to the drug [1]: five
CC(O)(CS(=O)(=O)c1ccc(F)cc1)C(=O)Nc1ccc(C#N)c(C(F)(F)F)c1 (centres unmarked) [Bicalutimide] | LAR | 
N.N.[Cl][Pt][Cl] [Cisplatin] | BL1 and BL2 | 
Cc1nc(Nc2ncc(C(=O)Nc3c(C)cccc3Cl)s2)cc(N2CCN(CCO)CC2)n1 [Dasantinib] | M and MSL | 
Cn1c(=O)n(-c2ccc(C(C)(C)C#N)cc2)c2c3cc(-c4cnc5ccccc5c4)ccc3ncc21 [NVP-BEX235] | M and MSL | 
C=CC(=O)Nc1cc2c(Nc3ccc(F)c(Cl)c3)ncnc2cc1OCCCN1CCOCC1 [canertinib] |  | Sensitivity of tumors of the IM class to the compound [3]: especially sensitive
CS(=O)(=O)CCNCc1ccc(-c2ccc3ncnc(Nc4ccc(OCc5cccc(F)c5)c(Cl)c4)c3c2)o1 [lapatinib] |  | Sensitivity of tumors of the IM class to the compound [3]: especially sensitive
